# Data reported in US12171866B2, “Lipid emulsion for parenteral nutrition comprising GPC” (BAXTER INTERNATIONAL INC., priority 2018, dated 2024).
# “Also recorded” adds a separate entry of the source.
# What was measured:
# [1] = Stability of lipid emulsions upon sterilization in the presence of choline derivatives; assay type: physicochemical; settings: for Stability of lipid emulsion upon sterilization (Comment): heat sterilization; for stability of the lipid emulsions during sterilization (heat): lipid emulsions prepared as in Example 1
# Description: In a first step, raw phases are heated up. […] The receiving vessel is closed and flushed with nitrogen.
# [2] = system: male Sprague-Dawley rats with steatosis, induced by choline and methionine deficient (MCD) diet; experiment: Liver histopathology, vacuolation, choline derivatives alone, Step #2 (FIG. 3A); assay type: in vivo, rat; settings: no DHA and ARA
# Description: (§1) The effects of GPC as well as of the combination of DHA, ARA and GPC were investigated in a sick animal model, wherein male Sprague-Dawley rats with steatosis, induced by choline and methionine deficient (MCD) diet (S SNIFF MCD pelleted choline/methionine deficient diet (SSNIFF Spezialdiäten GmbH, Soest, Germany, Product No. E15653-94)) were kept on parenteral nutrition.
# (§2) Parenteral nutrition started after 14 days under MCD diet. First measurements were done after 5 days of parenteral nutrition, followed by measurements after 9 and 17 days. The daily lipid uptake was 2.31 g/kg/d. The rats were split into several groups as set forth below in Table I.
# (§3) Two groups served as control groups, wherein a first group was treated with saline solution (0.90% w/v of NaCl in water for injection). A second group received a lipid emulsion (“LE 10%”) containing refined olive oil (80.0 g/L) and refined soybean oil (20.0 g/L) in water for injection, pH 6-8; LE 10% further contained egg lecithin (6.0 g/L), glycerol (11.25 g/L) and sodium oleate (0.15 g/L). LE 10% contained 100 g/L lipids.
# (§4) Various choline derivatives selected from the group consisting of choline chloride, glycerophosphocholine (GPC) and cytidine diphosphate-choline (CDP-choline) were added in two concentrations (low/high) to LE 10%, respectively, see Table I (Step #2). “Low” refers to a concentration of 15 mmol/L lipid emulsion, “high” refers to a concentration of 31 mmol/L of lipid emulsion. Choline chloride (2-Hydroxyethyl)trimethylammonium chloride). Pharmaceutical Secondary Standard, was purchased from Sigma-Aldrich (Merck KGaA, Germany). CDP-choline (prepared by fermentation) was from TCI Europe N.V. (Antwerp, Belgium). Glycerophosphocholine, prepared from egg phosphatide by saponification, was supplied by Lipoid GmbH, Germany. DHA (from algae, Schizochytrium sp.) and ARA (from fungi, Mortierella alpina) were purchased from BASF AG, Germany, Vitamin E was purchased from ADM (IL, U.S.A.)
# [3] = system: male Sprague-Dawley rats with steatosis, induced by choline and methionine deficient (MCD) diet; experiment: Liver weight to body weight ratio (FIG. 4); assay type: in vivo, rat
# Description: as §1, §2, §3, §4
# The study groups as described in Example 1 were further evaluated with regard to the development of liver weight versus body weight. An increase in liver weight which is not proportional to the increase of body weight is typical for the development of liver damage, specifically steatosis, as described before.
# [4] = system: male Sprague-Dawley rats with steatosis, induced by choline and methionine deficient (MCD) diet; experiment: Alanine aminotransferase (ALT) activity in plasma, animal study Step #2 (FIG. 1); assay type: in vivo, rat
# Method: ALT activity is determined by a modification recommended by the International Federation of Clinical Chemistry (IFCC), see also Example 2. ALT catalyzes the reaction of alpha-ketoglutarate with L-alanine to form L-glutamate and pyruvate. Under the action of LDH, pyruvate converts to lactate, and NADH is converted to NAD. The decrease in absorbance of NADH, measured at 340 nm (secondary wavelength is 700 nm), is directly proportional to the serum activity of ALT. It is a kinetic reaction. In general, serum is used for analysis. The serum is separated from the cells within 2 hours of collection and stored at -70° C. until assayed, Monitoring the ALT activity over time in an animal model is used herein as one straightforward and conclusive way to determine the efficacy of GPC in treating liver disease, specifically liver damage caused by a choline-deficient diet (Examples 1 and 2, FIGS. 1 and 2), Plasma-free choline concentration can be determined by high-pressure liquid chromatography (HPLC) and gas chromatography-mass spectrometry according to protocols known in the art (Pomfret et. al.: Measurement of choline and choline metabolite concentrations using high pressure liquid chromatography and gas chromatography-mass spectrometry. Anal Biochem. 1989; 180: 85-90). The effects of GPC as well as of the combination of DHA, ARA and GPC were investigated in a sick animal model, wherein male Sprague-Dawley rats with steatosis, induced by choline and methionine deficient (MCD) diet (S SNIFF MCD pelleted choline/methionine deficient diet (SSNIFF Spezialdiäten GmbH, Soest, Germany, Product No. E15653-94)) were kept on parenteral nutrition. Steatosis was confirmed in the respective groups by histopathology (Example 3). Parenteral nutrition started after 14 days under MCD diet. First measurements were done after 5 days of parenteral nutrition, followed by measurements after 9 and 17 days. The daily lipid uptake was 2.31 g/kg/d. The rats were split into several groups as set forth below in Table I. Two groups served as control groups, wherein a first group was treated with saline solution (0.90% w/v of NaCl in water for injection). A second group received a lipid emulsion (“LE 10%”) containing refined olive oil (80.0 g/L) and refined soybean oil (20.0 g/L) in water for injection, pH 6-8; LE 10% further contained egg lecithin (6.0 g/L), glycerol (11.25 g/L) and sodium oleate (0.15 g/L). LE 10% contained 100 g/L lipids. […] Pharmaceutical Secondary Standard, was purchased from Sigma-Aldrich (Merck KGaA, Germany). […] As described before, liver damage (cholestasis) may be determined by increased aminotransferase levels. ALT activity was determined with an ADVIA 1800 blood biochemistry analyzer/IFCC modified (Siemens) according to standard protocols such as described before.
# [5] = system: male Sprague-Dawley rats with steatosis, induced by choline and methionine deficient (MCD) diet; experiment: ALT activity in percent of the normal value, animal study Step #3 (FIG. 2); assay type: in vivo, rat
# Method: ALT activity is determined by a modification recommended by the International Federation of Clinical Chemistry (IFCC), see also Example 2. ALT catalyzes the reaction of alpha-ketoglutarate with L-alanine to form L-glutamate and pyruvate. Under the action of LDH, pyruvate converts to lactate, and NADH is converted to NAD. The decrease in absorbance of NADH, measured at 340 nm (secondary wavelength is 700 nm), is directly proportional to the serum activity of ALT. It is a kinetic reaction. In general, serum is used for analysis. The serum is separated from the cells within 2 hours of collection and stored at −70° C. until assayed, Monitoring the ALT activity over time in an animal model is used herein as one straightforward and conclusive way to determine the efficacy of GPC in treating liver disease, specifically liver damage caused by a choline-deficient diet (Examples 1 and 2, FIGS. 1 and 2), Plasma-free choline concentration can be determined by high-pressure liquid chromatography (HPLC) and gas chromatography-mass spectrometry according to protocols known in the art (Pomfret et. al.: Measurement of choline and choline metabolite concentrations using high pressure liquid chromatography and gas chromatography-mass spectrometry. Anal Biochem. 1989; 180: 85-90). […] As described before, liver damage (cholestasis) may be determined by increased aminotransferase levels. […]
# [6] = choline derivative high, 31 mmol/L in LE 10%
# [7] = choline derivative low, 15 mmol/L in LE 10%
# [8] = choline derivative high, 31 mmol/L in LE 10%, versus LE 10% alone
# [9] = plasma, day 5 to day 17 of parenteral nutrition, choline derivative 31 mmol/L (high) in LE 10%
# [10] = phosphatidylcholine as contained in the lipid emulsion(s)
Compound,"Stability of lipid emulsion upon sterilization (Comment) ([1]; 15 mmol/L, lipid emulsions tested LE 10, 13, 20 %)",stability of the lipid emulsions during sterilization (heat) [1],"effect on liver vacuolation (histopathological examination) [2, 6]","effect on liver vacuolation (histopathological examination) [2, 7]","liver to body weight ratio [3, 8]","development of ALT activity [4, 9]","Stability of lipid emulsion upon sterilization (Comment) ([1]; 30 mmol/L, lipid emulsion tested LE 10 %)","liver to body weight ratio [3, 10]","development of ALT activity ([4]; phosphatidylcholine as contained in LE lipid emulsion, 17 days parenteral nutrition)","ALT activity, change versus normal value [5, 10]","Stability of lipid emulsion upon sterilization (Comment) ([1]; 30 mmol/L, lipid emulsions tested LE 10, 20 %)","ALT activity, change versus normal value ([5]; GPC 40 mmol/L in lipid emulsion, normal (LE 10%) or reduced (LE 13%) phytosterol content)"
"C[N+](C)(C)CCO.[Cl-] [choline chloride, (2-Hydroxyethyl)trimethylammonium chloride]",Phase separation,destabilize the lipid emulsions during sterilization,fared better than those with only saline or lipid emulsion without any choline derivative,fared better than those with only saline or lipid emulsion without any choline derivative,reduction of the ratio,ALT activity neither significantly increases or decreases,,,,,,
"C[N+](C)(C)CCOP(=O)(O)OP(=O)([O-])OC[C@H]1O[C@@H](n2ccc(N)nc2=O)[C@H](O)[C@@H]1O [CDP-choline, cytidine diphosphate-choline]",,destabilize the lipid emulsions during sterilization,,also had an effect,reduction of the ratio,ALT activity neither significantly increases or decreases,Phase separation,,,,,
phosphatidylcholine,,,,,,,,does not seem to have any effect,does not seem to have any effect,does not seem to have any effect,,
"C[N+](C)(C)CCOP(=O)([O-])OC[C@@H](O)CO [GPC, (2-{[(2S)-2,3-dihydroxypropylphosphonato]oxy}ethyl)trimethylazanium]",,remained stable,significantly better,significantly better,most pronounced reduction of the ratio,clear drop in ALT activity; also recorded: most pronounced,,,,,Stable emulsion,significant decrease of ALT activity
